Results reported in patent US20240216272A1, “PHARMACEUTICAL PREPARATION” (KOWA COMPANY, LTD., priority 2014, published 2024).

Key:
Format in all cases: physicochemical
[1] = Test Example 10: Preservation Test No. 4, precipitation of crystals at 0° C.; parameters: key to Presence or Absence of Precipitation of Crystals: the absence of precipitation of crystals was rated as “a”; the presence of precipitation of crystals was rated as “b”
Experimental: An aqueous composition of the formulation shown in Table 13 was prepared in accordance with a conventional method, and then placed in a container made of polyethylene terephthalate (PET) to produce a pharmaceutical preparation. The resulting pharmaceutical preparation was preserved at 0° C. for 21 days, and then visually evaluated for the presence or absence of precipitation of crystals. Note that the absence of precipitation of crystals was rated as “a”, and the presence of precipitation of crystals was rated as “b”. [table]

[2] = Test Example 3: wavelengths of rays causing degradation of ripasudil in an aqueous composition No. 1; settings: for Analogs (%): about 15 W·h/m^2, 25° C.; for increase in the amount of analogs: aqueous composition, in words
Experimental: In the following test examples, ripasudil monohydrochloride dihydrate can be produced in accordance with the method described in WO2006/057397, for example. Moreover, in the following test examples, measurement of ripasudil and its analogs using HPLC was performed using an ODS column as the column, 0.01 mol/L phosphate buffer and acetonitrile as the mobile phase, and an ultraviolet absorptiometer (wavelength: 280 nm) as the detector. The wavelengths of rays causing the photodegradation of ripasudil in the aqueous composition examined in Test Example 2 were identified by examining the presence or absence of degradation products formed by exposure to light, by irradiation of rays with a specific range of wavelengths. Specifically, an aqueous composition containing, per 100 mL, 0.0612 g of ripasudil monohydrochloride dihydrate (0.05 g as the free form of ripasudil), 1.19 g of boric acid, 0.42 g of potassium chloride, 0.002 g of benzalkonium chloride, an appropriate amount of sodium hydroxide (pH 6.7), and sterile purified water (balance) was prepared, and this aqueous composition was stored in a transparent container made of polypropylene. The aqueous composition was then irradiated with rays with wavelengths in the range of approximately 270 to 335 nm, 320 to 395 nm, 370 to 435 nm, 430 to 470 nm, 470 to 530 nm, 525 to 575 nm, 570 to 630 nm, 625 to 675 nm, or 660 to 740 nm, at 25° C., using a spectroradiometer equipped with optical filters (spectral unit: HSU-100S, light source: MAX-302FBD; both from Asahi Spectra Co., Ltd.). Note that the rays of wavelengths in each of the ranges were emitted at a radiation energy of about 15 w·h/m^2. To examine the presence or absence of photodegradation products of ripasudil, the presence or absence of an increase in the amount of ripasudil analogs was evaluated, using the same method as that of Test Example 1.

[3] = Test Example 2: photostability of ripasudil in an aqueous composition; settings: D65 lamp; for Analogs (%): aqueous composition 0.4 g/100 mL as free form, pH 6.0, transparent polypropylene container, 25° C.
Experimental: In the following test examples, ripasudil monohydrochloride dihydrate can be produced in accordance with the method described in WO2006/057397, for example. Moreover, in the following test examples, measurement of ripasudil and its analogs using HPLC was performed using an ODS column as the column, 0.01 mol/L phosphate buffer and acetonitrile as the mobile phase, and an ultraviolet absorptiometer (wavelength: 280 nm) as the detector.
The stability of ripasudil incorporated in an aqueous composition with respect to light was evaluated by examining the presence or absence of degradation products formed by exposure to light, as in Test Example 1.
Specifically, an aqueous composition containing, per 100 mL, 0.4896 g of ripasudil monohydrochloride dihydrate (0.4 g, as the free form of ripasudil), 0.4 g of anhydrous sodium dihydrogen phosphate, 2.136 g of glycerin, 0.002 g of benzalkonium chloride, an appropriate amount of sodium hydroxide (pH 6.0), and sterile purified water (balance) was prepared, and this aqueous composition was stored in a transparent container made of polypropylene. The aqueous composition was then irradiated with 4000 lux of light to give a cumulative radiation dose of 300,000, 600,000, or 1,200,000 lux·hr, at 25° C., with a D65 fluorescent lamp as the light source, using a photostability tester (LT-120A: Nagano Science Corporation).
To examine the presence or absence of photodegradation products of ripasudil, the presence or absence of an increase in the amount of ripasudil analogs was evaluated. The amount of analogs was evaluated as the area percentage (%) relative to the total peak area derived from ripasudil and its analogs, using HPLC.

[4] = Test Example 7: Preservation Test No. 1, color difference (ΔYI) at 60° C.; settings: for ΔYI: aqueous composition of Table 7 (phosphate, pH 6.7), 60° C. for 3 months; for Evaluation (ΔYI): aqueous composition of Table 7, 60° C. for 3 months
Experimental: An aqueous composition of the formulation shown in Table 7 was prepared in accordance with a conventional method, and then placed in a container made of polyethylene (PE), polypropylene (PP), or polyvinyl chloride (PVC) to produce a pharmaceutical preparation. Each of the resulting pharmaceutical preparations was preserved at 60° C. for 3 months, and a color difference (ΔYI) before and after the preservation was measured using a color difference meter (spectrophotometer, CM-700d: Konica Minolta Sensing, Inc.). A ΔYI value of 5 or more was rated as “b”, and a ΔYI value of less than 5 was rated as “a”. [table]

Presence or Absence of Precipitation of Crystals ([1]; aqueous composition of Table 13 (boric acid, pH 6.7), 0° C. for 21 days, container PET): a
Analogs (%) ([2]; aqueous composition 0.05 g/100 mL as free form, boric acid, pH 6.7, transparent polypropylene container, emitted wavelengths 270 to 335 nm): 4.22%
Analogs (%) ([2]; same composition, emitted wavelengths 320 to 395 nm): 1.23%
Analogs (%) ([2]; same composition, emitted wavelengths 370 to 435 nm): 0.05%
Analogs (%) ([2]; same composition, emitted wavelengths 430 to 470 nm): 0.05%
Analogs (%) ([2]; same composition, emitted wavelengths 470 to 530 nm): 0.05%
Analogs (%) ([2]; same composition, emitted wavelengths 525 to 575 nm): 0.05%
Analogs (%) ([2]; same composition, emitted wavelengths 570 to 630 nm): 0.05%
Analogs (%) ([2]; same composition, emitted wavelengths 625 to 675 nm): 0.05%
Analogs (%) ([2]; same composition, emitted wavelengths 660 to 740 nm): 0.05%
Analogs (%) ([3]; 300,000 lux·hr): 1.29%
Analogs (%) ([3]; 600,000 lux·hr): 1.95%
Analogs (%) ([3]; 1,200,000 lux·hr): 3.67%
Analogs (%) ([3]; before exposure to light): 0.17%
ΔYI ([4]; container PE): 4.07
ΔYI ([4]; container PP): 4.42
ΔYI ([4]; container PVC): 7.45
SMILES: C[C@H]1CNCCCN1S(=O)(=O)c1cccc2cncc(F)c12 [ripasudil, 4-fluoro-5-[[(2S)-2-methyl-1,4-diazepan-1-yl]sulfonyl]isoquinoline]
precipitation of crystals ([1]; changed formulation, preserved at low temperature, container made of PET, in words): no precipitation of crystals was observed
increase in the amount of analogs ([2]; rays with wavelengths of 370 nm or more): an increase in the amount of analogs was not observed
increase in the amount of analogs ([2]; shorter wavelengths, particularly 270 to 335 nm): a significant increase in the amount of analogs was observed
formation of degradation products due to exposure to light ([3]; aqueous composition, transparent polypropylene container, in words): degradation products due to exposure to light are formed
Evaluation (ΔYI) ([4]; container PE): a (a ΔYI value of less than 5 was rated as “a”)
Evaluation (ΔYI) ([4]; container PP): a (a ΔYI value of less than 5 was rated as “a”)
Evaluation (ΔYI) ([4]; container PVC): b (A ΔYI value of 5 or more was rated as “b”)
